For one series, the target named is HSP90α (Homo sapiens, UniProt P07900). The series can be described thus: HSP90α Binding Fluorescent Polarization (FP) Assay. To be noted: competition with FITC-geldanamycin; read-out: HSP90 Binding Potency. As for the experimental part:
HSP90α Binding Fluorescent Polarization (FP) Assay
A master mix was prepared with assay buffer, BSA and FITC-geldanamycin. In a 96-well plate, a serial 3-fold dilution of each compound was prepared ranging from 40 μM down until 2.0 nM. Also in a 96-well plate, recombinant HSP90α protein was diluted to 28 μg/ml. Then, in a 384-well plate, 10 μl of master mix and 5 μl of compound dilution were added per well to duplicate wells and mixed by brief shaking. Then 5 μl of diluted HSP90α protein was added per well, mixed by brief shaking, incubated at 25° C. for 30, 60 and 120 min and fluorescence was measured on an EnVision Plate Reader. Background-subtracted mP values were calculated from EnVision raw data and a four-parameter “log[inhibitor] vs. response” curve was fitted using GraphPad Prism 7.0.

Another series deals with T1, BRD4 (BD1+BD2) (Homo sapiens, UniProt O60885).
T1 construct: 1.8 μg/ml recombinant BRD4 (BD1+BD2 domains) protein
Conditions: read-out: BRD4 Binding Potency. As for the experimental part: A master mix was prepared with assay buffer, 1.8 μg/ml recombinant BRD4 (BD1+BD2 domains) protein, and 200-fold dilutions of Tb-labeled donor and dye-labeled acceptor. 40-fold dilutions of acetylated and non-acetylated ligands were prepared in 1×BRD TR-FRET assay buffer. Also, a serial 3-fold dilution of each compound was prepared ranging from 40 μM down until 2.0 nM. In a 384-well plate, 5 μl diluted ligand and 5 μl of compound dilution were added per well to duplicate wells and mixed by brief shaking. Then 10 μl of master mix was added per well, mixed by brief shaking, incubated at 25° C. for 2 hr and fluorescence was measured on an EnVision Plate Reader. The 665 nm/615 nm ratio was calculated from EnVision raw data. Data were normalized using whole-plate averages of “positive” and “negative” readings. A four-parameter “log[inhibitor] vs. response” curve was fitted using GraphPad Prism 7.0.

The next series has as its system MV4-11 cells. The series can be described thus: MV4-11 Cell Cytotoxicity Assay. The series is classed as cell-based, human. To be noted: human, MV4-11 cells, CCK-8. The text has this: % Inhibition=100−(D−B)/(S−B)*100%.
S: The absorbance of the maximum (cells with DMSO)
B: The absorbance of the minimum (medium with DMSO)

Structures can show the parent of a compound that is named as a salt. Where only a bound is given, the exact number is not on record here.

For `CCn1c(=O)/c(=C2\Sc3ccccc3N2C)s/c1=C\c1cccc[n+]1CCCNC(=O)C[C@@H]1N=C(c2ccc(Cl)cc2)c2c(sc(C)c2C)-n2c(C)nnc21` [Compound 7, 1-(3-(2-((6S)-4-(4-chlorophenyl)-2,3,9-trimethyl-6H-thieno[3,2-f][1,2,4]triazolo[4,3-a][1,4]diazepin-6-yl)acetamido)propyl)-2-((Z)-((E)-3-ethyl-5-(3-methylbenzo[d]thiazol-2(3H)-ylidene)-4-oxothiazolidin-2-ylidene)methyl)pyridin-1-ium chloride], the IC50 at HSP90α is > 1000 nM; on BRD4 (BD1+BD2), < 100 nM. The IC50 at 72 h in the series on MV4-11 cells was 100 to 1000 nM.

On to `CCn1c(=O)/c(=C2\Sc3ccccc3N2C)s/c1=C\c1cccc[n+]1CCNC(=O)C[C@@H]1N=C(c2ccc(Cl)cc2)c2c(sc(C)c2C)-n2c(C)nnc21` [Compound 8, 1-(2-(2-((6S)-4-(4-chlorophenyl)-2,3,9-trimethyl-6H-thieno[3,2-f][1,2,4]triazolo[4,3-a][1,4]diazepin-6-yl)acetamido)ethyl)-2-((Z)-((E)-3-ethyl-5-(3-methylbenzo[d]thiazol-2(3H)-ylidene)-4-oxothiazolidin-2-ylidene)methyl)pyridin-1-ium], for which the IC50 is > 1000 nM at HSP90α and 100 to 1000 nM on BRD4 (BD1+BD2). The IC50 at 72 h with MV4-11 cells was > 1000 nM.

`Cc1cc(-c2nnc(O)n2-c2ccc(CN3CCN(CC4CCN(C(=O)C[C@@H]5N=C(c6ccc(Cl)cc6)c6c(sc(C)c6C)-n6c(C)nnc65)CC4)CC3)cc2)c(O)cc1O` [Compound 9, 2-((6S)-4-(4-chlorophenyl)-2,3,9-trimethyl-6H-thieno[3,2-f][1,2,4]triazolo[4,3-a][1,4]diazepin-6-yl)-1-(4-((4-(4-(3-(2,4-dihydroxy-5-methylphenyl)-5-hydroxy-4H-1,2,4-triazol-4-yl)benzyl)piperazin-1-yl)methyl)piperidin-1-yl)ethanone, trifluoroacetic acid]: the IC50 is 100 to 1000 nM on HSP90α and < 100 nM on BRD4 (BD1+BD2). Further, in the series on MV4-11 cells, the IC50 at 72 h is < 100 nM.

`CCc1cc(-c2nnc(O)n2-c2ccc(CN3CCN(CC4CCN(C(=O)C[C@@H]5N=C(c6ccc(Cl)cc6)c6c(sc(C)c6C)-n6c(C)nnc65)CC4)CC3)cc2)c(O)cc1O` [Compound 10, (S)-2-(4-(4-chlorophenyl)-2,3,9-trimethyl-6H-thieno[3,2-f][1,2,4]triazolo[4,3-a][1,4]diazepin-6-yl)-1-(4-((4-(4-(3-(5-ethyl-2,4-dihydroxyphenyl)-5-hydroxy-4H-1,2,4-triazol-4-yl)benzyl)piperazin-1-yl)methyl)piperidin-1-yl)ethan-1-one hydrochloride]: the IC50 at HSP90α and at BRD4 (BD1+BD2) was 100 to 1000 nM throughout. In addition, the IC50 at 72 h in the series with MV4-11 cells is < 100 nM.

Consider `CCCc1cc(-c2nnc(O)n2-c2ccc(CN3CCN(CC4CCN(C(=O)C[C@@H]5N=C(c6ccc(Cl)cc6)c6c(sc(C)c6C)-n6c(C)nnc65)CC4)CC3)cc2)c(O)cc1O` [Compound 11, (S)-2-(4-(4-chlorophenyl)-2,3,9-trimethyl-6H-thieno[3,2-f][1,2,4]triazolo[4,3-a][1,4]diazepin-6-yl)-1-(4-((4-(4-(3-(2,4-dihydroxy-5-propylphenyl)-5-hydroxy-4H-1,2,4-triazol-4-yl)benzyl)piperazin-1-yl)methyl)piperidin-1-yl)ethan-1-one, trifluoroacetic acid], for which the IC50 at HSP90α is < 100 nM; at BRD4 (BD1+BD2), 100 to 1000 nM. For the same compound, the IC50 at 72 h in the series on MV4-11 cells is < 100 nM.

For the compound `Cc1sc2c(c1C)C(c1ccc(Cl)cc1)=N[C@@H](CC(=O)N1CCC(CN3CCN(Cc4ccc(-n5c(S)nnc5-c5cc(C(C)C)c(O)cc5O)cc4)CC3)CC1)c1nnc(C)n1-2` [Compound 12, 2-((6S)-4-(4-chlorophenyl)-2,3,9-trimethyl-6H-thieno[3,2-f][1,2,4]triazolo[4,3-a][1,4]diazepin-6-yl)-1-(4-((4-(4-(3-(2,4-dihydroxy-5-isopropylphenyl)-5-mercapto-4H-1,2,4-triazol-4-yl)benzyl)piperazin-1-yl)methyl)piperidin-1-yl)ethanone, trifluoroacetic acid], the values for the IC50 on HSP90α and at BRD4 (BD1+BD2) were < 100 nM and > 1000 nM, respectively. For the same compound, the IC50 at 72 h in the series on MV4-11 cells is < 100 nM.

Turning to `Cc1sc2c(c1C)C(c1ccc(Cl)cc1)=N[C@@H](CC(=O)N1CCC(CN3CCN(Cc4ccc(-n5c(C(=O)NCC(F)(F)F)nnc5-c5cc(C(C)C)c(O)cc5O)cc4)CC3)CC1)c1nnc(C)n1-2` [Compound 13, 4-(4-((4-((1-(2-((6S)-4-(4-chlorophenyl)-2,3,9-trimethyl-6H-thieno[3,2-f][1,2,4]triazolo[4,3-a][1,4]diazepin-6-yl)acetyl)piperidin-4-yl)methyl)piperazin-1-yl)methyl)phenyl)-5-(2,4-dihydroxy-5-isopropylphenyl)-N-(2,2,2-trifluoroethyl)-4H-1,2,4-triazole-3-carboxamide], the IC50 at HSP90α and at BRD4 (BD1+BD2) was 100 to 1000 nM throughout. The IC50 at 72 h with MV4-11 cells is < 100 nM.

`CCc1cc(-c2nnc(C(=O)NCC(F)(F)F)n2-c2ccc(CN3CCN(CC4CCN(C(=O)C[C@@H]5N=C(c6ccc(Cl)cc6)c6c(sc(C)c6C)-n6c(C)nnc65)CC4)CC3)cc2)c(O)cc1O` [Compound 14, 4-(4-((4-((1-(2-((6S)-4-(4-chlorophenyl)-2,3,9-trimethyl-6H-thieno[3,2-f][1,2,4]triazolo[4,3-a][1,4]diazepin-6-yl)acetyl)piperidin-4-yl)methyl)piperazin-1-yl)methyl)phenyl)-5-(5-ethyl-2,4-dihydroxyphenyl)-N-(2,2,2-trifluoroethyl)-4H-1,2,4-triazole-3-carboxamide, trifluoroacetic acid]: the IC50 at HSP90α was 100 to 1000 nM; at BRD4 (BD1+BD2), > 1000 nM. In addition, in the series with MV4-11 cells, the IC50 at 72 h was < 100 nM.

For `Cc1cc(-c2nnc(C(=O)NCC(F)(F)F)n2-c2ccc(CN3CCN(CC4CCN(C(=O)C[C@@H]5N=C(c6ccc(Cl)cc6)c6c(sc(C)c6C)-n6c(C)nnc65)CC4)CC3)cc2)c(O)cc1O` [Compound 15, 4-(4-((4-((1-(2-((6S)-4-(4-chlorophenyl)-2,3,9-trimethyl-6H-thieno[3,2-f][1,2,4]triazolo[4,3-a][1,4]diazepin-6-yl)acetyl)piperidin-4-yl)methyl)piperazin-1-yl)methyl)phenyl)-5-(2,4-dihydroxy-5-methylphenyl)-N-(2,2,2-trifluoroethyl)-4H-1,2,4-triazole-3-carboxamide, trifluoroacetic acid], the IC50 on HSP90α is 100 to 1000 nM; on BRD4 (BD1+BD2), > 1000 nM. Further, the IC50 at 72 h in the series with MV4-11 cells is < 100 nM.

Turning to `Cc1sc2c(c1C)C(c1ccc(Cl)cc1)=N[C@@H](CC(=O)N1CCC(CN3CCN(Cc4ccc(-n5c(O)nnc5-c5cc(C(C)C)c(O)cc5O)cc4F)CC3)CC1)c1nnc(C)n1-2` [Compound 17, (S)-2-(4-(4-chlorophenyl)-2,3,9-trimethyl-6H-thieno[3,2-f][1,2,4]triazolo[4,3-a][1,4]diazepin-6-yl)-1-(4-((4-(4-(3-(2,4-dihydroxy-5-isopropylphenyl)-5-hydroxy-4H-1,2,4-triazol-4-yl)-2-fluorobenzyl)piperazin-1-yl)methyl)piperidin-1-yl)ethan-1-one, trifluoroacetic acid], the IC50 at HSP90α is 100 to 1000 nM; on BRD4 (BD1+BD2), > 1000 nM. Further, the IC50 at 72 h in the series with MV4-11 cells is < 100 nM.

Turning to `Cc1nn(-c2ccc(C(N)=O)c(NCCOCCNC(=O)C[C@@H]3N=C(c4ccc(Cl)cc4)c4c(sc(C)c4C)-n4c(C)nnc43)c2)c2c1C(=O)CC(C)(C)C2` [Compound 20, 2-((2-(2-(2-((6S)-4-(4-chlorophenyl)-2,3,9-trimethyl-6H-thieno[3,2-f][1,2,4]triazolo[4,3-a][1,4]diazepin-6-yl)acetamido)ethoxy)ethyl)amino)-4-(3,6,6-trimethyl-4-oxo-4,5,6,7-tetrahydro-1H-indazol-1-yl)benzamide], the IC50 at HSP90α and at BRD4 (BD1+BD2) was > 1000 nM each time. This compound yielded an IC50 at 72 h in the series with MV4-11 cells of 100 to 1000 nM.

As for `Cc1nn(-c2ccc(C(N)=O)c(NCCOCCOCCNC(=O)C[C@@H]3N=C(c4ccc(Cl)cc4)c4c(sc(C)c4C)-n4c(C)nnc43)c2)c2c1C(=O)CC(C)(C)C2` [Compound 21, 2-((2-(2-(2-(2-((6S)-4-(4-chlorophenyl)-2,3,9-trimethyl-6H-thieno[3,2-f][1,2,4]triazolo[4,3-a][1,4]diazepin-6-yl)acetamido)ethoxy)ethoxy)ethyl)amino)-4-(3,6,6-trimethyl-4-oxo-4,5,6,7-tetrahydro-1H-indazol-1-yl)benzamide, trifluoroacetic acid], the IC50 on HSP90α and at BRD4 (BD1+BD2) was > 1000 nM throughout. Also, the IC50 at 72 h in the series on MV4-11 cells lay in the range of 100 to 1000 nM.

The values above are taken from patent US20220168427A1 (Ranok Therapeutics (Hangzhou) Co. Ltd., priority 2019, published 2022).
